Key:
[1] = test system: Syphacia muris; test: Activity against Syphacia muris in rats; assay type: in vivo; conditions: po, 120 h, orally by gavage, autopsy five days after treatment
Method: A. Activity against Syphacia muris in rats.
(§1) Syphacia muris was selected as a test organism since this organism manifests its relationship with the human oxyuris, Enterobin vermicularis,by its life cycle, by the cyclical period of activity and by laying its eggs in the peri-anal zone. For artificial infections, adhesive cellophane tape is used to recover the eggs from the peri-anal skin and this tape is administered orally to rats. The thus-infected animals are housed in individual cages with food and water ad libitum. The compound to be tested is administered orally by gavage. A sterile saline solution or suspension of the compound is made at various concentrations corresponding to 40, 10, 2.5, 1.25, 0.63, 0.31 and 0.16 mg/kg body weight. Control animals receive the same amount of saline. Five days thereafter the animals are sacrificed. Coecum, colon and rectum are isolated and washed on a sieve of mesh 100. Table I gives the ED50 -values for a number of the compounds of formula (I). The compounds listed therein are not given for the purpose of limiting the invention thereto but only to exemplify the useful anthelmintic properties of all the compounds within the scope of formula (I).

[2] = test system: Strongyloides ratti; test: Activity against Strongyloides ratti in rats; assay type: in vivo; conditions: po, young male Wistar rats, orally, treated on day 7 after infection, autopsied day 13, 50% reduction of number of worms vs untreated controls
Method: as §1
B. Activity against Strongyloides ratti in rats.
Young male Wistar rats, weighing about 100 g are used in this test. Infective larvae of Strongyloides ratti are collected from charcoal cultures, put into a beaker with tapwater and stirred magnetically for counting. The rats are infected subcutaneously with about 1000 larvae, treated on day 7 after infection in the same manner as described in experiment A, and autopsied on day 13. The anterior part of the intestine is divided into two sections, each of 10 cm. length and placed inside out on a wood-applicator. These sections are incubated in physiological saline for 4 hours at 37° C. Worms obtained from the sedimentation of incubation saline are sampled and counted under a dissection microscope. In table I are given ED50 -values for a number of compounds of formula (I). These ED50 -values represent the amount of the compound under investigation in mg/kg which reduces the number of worms 50% with respect to the number found in the untreated control animals.

SMILES	ED50 [1]	ED50 [2]
COC(=O)Nc1nc2ccc(C3(c4ccc(F)cc4)OCCO3)cc2[nH]1	5 mg/kg	0.31 mg/kg
COC(=O)Nc1nc2ccc(C3(c4cccs4)OCC(C)(C)CO3)cc2[nH]1	40 mg/kg	10 mg/kg
COC(=O)Nc1nc2ccc(C3(c4cccs4)OCCO3)cc2[nH]1	2.5 mg/kg	2.5 mg/kg
COC(=O)Nc1nc2ccc(C3(c4ccccc4)OCCO3)cc2[nH]1	1.25 mg/kg	0.63 mg/kg
COC(=O)Nc1nc2ccc(C3(c4ccccc4)OC(C)C(C)O3)cc2[nH]1 (stereo not shown)	2.5 mg/kg	1.25 mg/kg
COC(=O)Nc1nc2ccc(C3(c4ccccc4)OCCC(C)O3)cc2[nH]1 (stereo not shown)	40 mg/kg	1.25 mg/kg
COC(=O)Nc1nc2ccc(C3(c4cccs4)OCC(C)O3)cc2[nH]1 (stereo not shown)	10 mg/kg	10 mg/kg
COC(=O)Nc1nc2ccc(C3(c4ccccc4)OCC(C)O3)cc2[nH]1 (stereo not shown)	2.5 mg/kg	0.31 mg/kg
COC(=O)Nc1nc2ccc(C3(c4cccs4)OC(C)C(C)O3)cc2[nH]1 (stereo not shown)	2.5 mg/kg	10 mg/kg
COC(=O)Nc1nc2ccc(C3(c4ccccc4)OCC(C)(C)CO3)cc2[nH]1	10 mg/kg	2.5 mg/kg
COC(=O)Nc1nc2ccc(C3(c4cccs4)OCCC(C)O3)cc2[nH]1 (stereo not shown)	10 mg/kg	10 mg/kg

Source: US4032536A, “(1H-Benzimidazol-2-yl)carbamates” (Janssen Pharmaceutica N.V., priority 1976, dated 1977)
